Source: PMC8657792, “Interaction Profiles of Central Nervous System Active Drugs at Human Organic Cation Transporters 1–3 and Human Plasma Membrane Monoamine Transporter” (International Journal of Molecular Sciences, 2021)
Like-named read-outs stand apart in the source and are kept apart here.

Assays:
hOCT1 [1] = molecular target: T1, hOCT1 (Homo sapiens, UniProt O15245); assay: [3H]MPP+ uptake inhibition assay, HEK293 cells stably expressing hOCT1; type: cell-based
T1 construct: expressed in transfected cells
T1 sequence (O15245 1-554): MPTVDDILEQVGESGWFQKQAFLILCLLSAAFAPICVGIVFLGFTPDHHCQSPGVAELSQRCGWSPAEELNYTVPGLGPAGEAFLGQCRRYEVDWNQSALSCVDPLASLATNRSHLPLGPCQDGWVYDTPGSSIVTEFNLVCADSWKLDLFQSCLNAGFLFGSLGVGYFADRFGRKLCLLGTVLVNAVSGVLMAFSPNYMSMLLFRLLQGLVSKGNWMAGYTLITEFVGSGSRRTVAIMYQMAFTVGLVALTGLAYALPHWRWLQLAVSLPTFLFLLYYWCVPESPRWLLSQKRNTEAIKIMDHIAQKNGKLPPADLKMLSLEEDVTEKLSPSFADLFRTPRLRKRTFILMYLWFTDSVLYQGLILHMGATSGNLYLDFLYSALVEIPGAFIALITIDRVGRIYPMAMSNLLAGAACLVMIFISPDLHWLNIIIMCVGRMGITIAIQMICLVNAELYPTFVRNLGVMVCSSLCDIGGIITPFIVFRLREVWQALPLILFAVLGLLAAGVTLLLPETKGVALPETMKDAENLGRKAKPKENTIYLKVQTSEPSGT
Procedure: (§1) HEK293 cells were transfected with a plasmid, encoding the transporter of interest and an N-terminal YFP-tag, carried out using jetPRIME ^© (Polyplus Transfection; (VWR International GmbH, Vienna, Austria)) reagent (for a 10 cm dish with 1–2 × 10^6 cells in 10 mL serum containing medium at 60–80% confluency: 500 μ L jetPRIME ^© buffer, 10 μ g DNA and 20 μ L jetPRIME ^© reagent) and selection pressure maintained for two weeks [2, 54, 55]. Subsequently, 500,000 cells were FACS-sorted (fluorescence-activated cell sorting) according to expression level to establish cell lines stably expressing the protein of interest. […] For uptake inhibition assays, cells were cultured at a subconfluent (80–90% density) state in high-glucose Dulbecco’s Modified Eagle Medium (DMEM ), enriched with 10% heat-inactivated Fetal Bovine Serum (FBS) and penicillin/streptomycin (PS; 100 U × 100 mL ^−1 , each). Selection pressure was maintained by the addition of geneticin (50 mg × mL ^−1 ) at 37 ^∘ C and 5% CO 2 in a humidified incubator. At a density of 60,000 cells per well, HEK293 cells expressing the respective transporter were seeded onto poly-D-lysine-coated wells 24 h prior to uptake inhibition experiments in a final volume of 200 μ L per well.
(§2) Prior to the addition of the respective compounds, DMEM was removed from all wells and replaced with 200 μ L of Krebs-HEPES-buffer (KHB; 10 mM HEPES, 120 mM NaCl, 3 mM KCl, 2 mM CaCl 2 , 2 mM MgSO 4 and 20 mM D-glucose, pH adjusted to 7.3) at room temperature. Cells were exposed to a pre-incubation solution containing the compound of interest in the respective concentration (dissolved in Krebs-HEPES-buffer) for 10 min with a total volume of 50 μ L, which was then replaced with a 50 μ L uptake solution containing 0.05 μ M of tritiated 1-methyl-4-phenylpyridinium ([ ^3 H]MPP ^+ ) as substrate, and the compound of interest in respective concentrations, for 10 minutes each. Finally, uptake was terminated by washing with 200 μ L of ice-cold (4 ^∘ C) KHB, after which cells were lysed with 200 μ L of 1% sodium dodecyl sulphate (SDS). After transferring the solution of each well into 6 mL counting vials containing 2 mL of scintillation cocktail, the vials were measured with a beta-scintillation counter for quantification of the uptake of tritiated substrate. […] To obtain specific data, non-specific uptake was assessed in the presence of 100 μ M D22 and subtracted from the total data. The 100% values were defined as uptake in the absence of a tested substance, defining maximal uptake capacity. Inhibitions of the compound of interest were described as a percentage of the maximal uptake capacity.
(§3) Half-maximal inhibitory concentration ( IC50 ) values of each substance were calculated and plotted using GraphPad Prism 8.4.3 (GraphPad Software Inc., San Diego, CA, USA). IC50 was determined by non-linear regression, solving the equation Y=Bottom+(Top−Bottom)/(1+10^X−LogEC50) . […] All data stem from a minimum of three separate experiments (n≥ 3) executed in triplicates and are shown as mean ± SD.

hOCT2 [2] = molecular target: T2, hOCT2 (Homo sapiens, UniProt O15244); assay: [3H]MPP+ uptake inhibition assay, HEK293 cells stably expressing hOCT2; type: cell-based
T2 construct: expressed in transfected cells
T2 sequence (O15244 1-555): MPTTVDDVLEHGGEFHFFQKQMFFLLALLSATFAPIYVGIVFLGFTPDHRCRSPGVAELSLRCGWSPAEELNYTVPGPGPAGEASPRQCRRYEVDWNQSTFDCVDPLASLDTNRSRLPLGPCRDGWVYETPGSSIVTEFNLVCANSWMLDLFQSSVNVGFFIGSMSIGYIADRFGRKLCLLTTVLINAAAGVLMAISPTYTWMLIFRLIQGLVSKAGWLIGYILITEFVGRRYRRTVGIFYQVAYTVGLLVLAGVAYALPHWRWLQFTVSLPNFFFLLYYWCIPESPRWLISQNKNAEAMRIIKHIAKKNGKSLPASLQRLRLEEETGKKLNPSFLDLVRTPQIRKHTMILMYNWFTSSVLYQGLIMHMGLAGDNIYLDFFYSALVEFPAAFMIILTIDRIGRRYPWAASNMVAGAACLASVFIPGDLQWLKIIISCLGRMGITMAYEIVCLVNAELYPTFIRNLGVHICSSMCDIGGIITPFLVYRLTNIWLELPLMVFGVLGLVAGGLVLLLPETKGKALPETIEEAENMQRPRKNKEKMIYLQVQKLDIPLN
Procedure: as §1, §2, §3

hOCT3 [3] = molecular target: T3, hOCT3 (Homo sapiens, UniProt O75751); assay: [3H]MPP+ uptake inhibition assay, HEK293 cells stably expressing hOCT3; type: cell-based
T3 construct: expressed in transfected cells
T3 sequence (O75751 1-556): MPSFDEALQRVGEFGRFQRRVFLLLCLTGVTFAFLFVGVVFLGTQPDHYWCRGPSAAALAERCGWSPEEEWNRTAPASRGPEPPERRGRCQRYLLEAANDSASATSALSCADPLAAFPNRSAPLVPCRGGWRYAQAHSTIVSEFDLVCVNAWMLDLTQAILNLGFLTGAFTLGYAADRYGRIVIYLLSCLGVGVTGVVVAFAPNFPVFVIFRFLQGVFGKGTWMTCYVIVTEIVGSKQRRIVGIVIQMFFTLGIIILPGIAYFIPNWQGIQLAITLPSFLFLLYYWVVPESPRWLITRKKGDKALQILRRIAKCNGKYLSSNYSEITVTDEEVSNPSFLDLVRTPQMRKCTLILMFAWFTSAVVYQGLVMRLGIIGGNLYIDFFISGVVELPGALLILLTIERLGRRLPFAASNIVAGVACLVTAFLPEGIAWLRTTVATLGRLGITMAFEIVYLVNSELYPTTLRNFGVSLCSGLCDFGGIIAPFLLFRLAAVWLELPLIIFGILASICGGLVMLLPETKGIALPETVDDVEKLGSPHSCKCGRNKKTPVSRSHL
Procedure: as §1, §2, §3

hPMAT [4] = molecular target: T4, hPMAT (Homo sapiens, UniProt Q7RTT9); assay: [3H]MPP+ uptake inhibition assay, HEK293 cells stably expressing hPMAT; type: cell-based
T4 construct: expressed in transfected cells
T4 sequence (Q7RTT9 1-530): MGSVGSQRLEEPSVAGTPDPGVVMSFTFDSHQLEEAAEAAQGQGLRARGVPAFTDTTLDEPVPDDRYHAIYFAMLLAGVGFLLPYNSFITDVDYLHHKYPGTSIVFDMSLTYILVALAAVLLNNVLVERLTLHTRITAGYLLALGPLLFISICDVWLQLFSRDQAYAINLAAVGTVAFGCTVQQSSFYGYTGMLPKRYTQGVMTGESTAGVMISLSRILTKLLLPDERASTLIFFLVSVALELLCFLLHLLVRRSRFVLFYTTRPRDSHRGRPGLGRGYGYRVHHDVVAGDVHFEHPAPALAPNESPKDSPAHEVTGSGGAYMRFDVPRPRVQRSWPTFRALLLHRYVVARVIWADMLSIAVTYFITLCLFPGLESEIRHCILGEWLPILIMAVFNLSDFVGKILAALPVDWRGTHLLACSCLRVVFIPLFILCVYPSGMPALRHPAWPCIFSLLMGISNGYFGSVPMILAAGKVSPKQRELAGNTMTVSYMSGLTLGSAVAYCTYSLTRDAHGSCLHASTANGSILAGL
Procedure: as §1, §2, §3

hOCT1 [5] = molecular target: T1, hOCT1; details: Table S1, supplementary reference list, cited from earlier work; for IC50: read-out: IC50 literature hOCT1; for Ki: read-out: IC50 literature hOCT1 (Ki), Ki values
hOCT2 [6] = molecular target: T2, hOCT2; details: Table S1, supplementary reference list, cited from earlier work; for IC50: read-out: IC50 literature hOCT2; for Ki: read-out: IC50 literature hOCT2 (Ki), Ki values
hOCT3 [7] = molecular target: T3, hOCT3; details: Table S1, supplementary reference list, cited from earlier work; for Ki: read-out: IC50 literature hOCT3 (Ki), Ki values
hPMAT [8] = molecular target: T4, hPMAT; details: Table S1, supplementary reference list, read-out: IC50 literature hPMAT, cited from earlier work
mOCT3 = tested on: mOCT3; design: method as in earlier work; details: Table S1, hOCT3 column, marked (mOCT3); supplementary reference list; read-out: IC50 literature (mOCT3); cited from earlier work

`CC(NC(C)(C)C)C(=O)c1cccc(Cl)c1` (stereo not drawn) [Bupropion, bupropion] gave an IC50 (hOCT1 [1]; HEK293 stably expressing hOCT1, 0.05 μM [3H]MPP+, 10 min pre-incubation, 10 min uptake, brackets in Table S1 = 95%-CI, n.s. = non-significant, read-out: IC50 hOCT1 (inhibitory potency, [3H]MPP+ uptake)) of 5.36 µM, an IC50 (hOCT2 [2]; HEK293 stably expressing hOCT2, 0.05 μM [3H]MPP+, 10 min pre-incubation, 10 min uptake, brackets in Table S1 = 95%-CI, n.s. = non-significant, read-out: IC50 hOCT2 (inhibitory potency, [3H]MPP+ uptake)) of 32.9 µM and an IC50 (hOCT3 [3]; HEK293 stably expressing hOCT3, 0.05 μM [3H]MPP+, 10 min pre-incubation, 10 min uptake, brackets in Table S1 = 95%-CI, n.s. = non-significant, read-out: IC50 hOCT3 (inhibitory potency, [3H]MPP+ uptake)) of 186 µM. The IC50 (hPMAT [4]; HEK293 stably expressing hPMAT, 0.05 μM [3H]MPP+, 10 min pre-incubation, 10 min uptake, brackets in Table S1 = 95%-CI, n.s. = non-significant, read-out: IC50 hPMAT (inhibitory potency, [3H]MPP+ uptake)) was 97 µM, the IC50 (hOCT1 [5]; ref 1) was 161 µM and the IC50 (hOCT2 [6]; ref 1) was 28.6 µM. For the same compound, the IC50 (hOCT2 [6]; ref 2) was 32.2 µM, the IC50 (hOCT3 [7]; ref 1, read-out: IC50 literature hOCT3) was 738 µM and the IC50 (hPMAT [8]; ref 3) was 115 µM.

In the case of `CN(C)CCCC1(c2ccc(F)cc2)OCc2cc(C#N)ccc21` (stereo not drawn) [Citalopram], the IC50 (hOCT1 [5]; ref 1) is given as 13.2 µM, the IC50 (hOCT2 [6]; ref 1) is given as 115 µM and the IC50 (hPMAT [8]; ref 4) is given as 117 µM.

With `COC(=O)[C@H]1[C@@H](OC(=O)c2ccccc2)C[C@@H]2CC[C@H]1N2C` [Cocaine, cocaine] the IC50 (hOCT1 [1]) was 6.66 µM, the IC50 (hOCT2 [2]) was 27.8 µM and the “IC50 hOCT3 (inhibitory potency, [3H]MPP+ uptake)” value (hOCT3 [3]; HEK293 stably expressing hOCT3, 0.05 μM [3H]MPP+, 10 min pre-incubation, 10 min uptake, brackets in Table S1 = 95%-CI, n.s. = non-significant) was “n.s”. The “IC50 hPMAT (inhibitory potency, [3H]MPP+ uptake)” value (hPMAT [4]; HEK293 stably expressing hPMAT, 0.05 μM [3H]MPP+, 10 min pre-incubation, 10 min uptake, brackets in Table S1 = 95%-CI, n.s. = non-significant) was “n.s”, the Ki (hOCT1 [5]) was 85 ± 22 µM and the Ki (hOCT2 [6]) was 113 ± 21 µM.

For `CN1C(=O)CN=C(c2ccccc2)c2cc(Cl)ccc21` [Diazepam, diazepam], the IC50 (mOCT3) is listed as 40 µM.

Compound `CNC1(c2ccccc2Cl)CCCCC1=O` (stereo not drawn) [Ketamine, ketamine] has an IC50 (hOCT1 [1]) of 23.5 µM, an IC50 (hOCT2 [2]) of 12.5 µM and an IC50 (hOCT3 [3]) of 1030 µM. For the same compound, the IC50 (hPMAT [4]) was 135 µM, the “IC50 literature hOCT1 (Km)” value (hOCT1 [5]; Km) was 73.9 ± 15.2 µM and the Ki (hOCT1 [5]) was 115 ± 43.7 µM. For the same compound, the “IC50 literature hOCT2 (Km)” value (hOCT2 [6]; Km) was 33.5 ± 20.3 µM, the Ki (hOCT2 [6]) was 22.7 ± 6.3 µM and the “IC50 literature hOCT3 (Km)” value (hOCT3 [7]; Km) was 52.9 ± 15.0 µM. The Ki (hOCT3 [7]) was 226 ± 65 µM and the IC50 (hOCT3 [7]; read-out: IC50 literature hOCT3, ASP+ as substrate) was 440 µM.

With `CNC(C)Cc1ccc2c(c1)OCO2` (stereo not drawn) [MDMA, 3,4-methylenedioxymethamphetamine] the IC50 (hOCT1 [1]) was 1.14 µM, the IC50 (hOCT2 [2]) was 2.71 µM and the IC50 (hOCT3 [3]) was 154 µM. The “Effect on substrate uptake by hOCT3 (in words)” value (hOCT3 [3]; [3H]MPP+ uptake, HEK293 hOCT3) was “not inhibiting uptake”, the IC50 (hPMAT [4]) was 7.77 µM and the Ki (hOCT1 [5]) was 24.2 ± 9.2 µM. For the same compound, the Ki (hOCT2 [6]) was 1.63 ± 0.62 µM and the Ki (hOCT3 [7]) was 73.6 ± 50.3 µM.

In the case of `C[C@H](N)Cc1ccccc1` [d-Amphetamine, d-amphetamine], the IC50 (hOCT1 [1]) is reported as 8.39 µM, the IC50 (hOCT2 [2]) is reported as 2.21 µM and the IC50 (hOCT3 [3]) is reported as 337 µM. The IC50 (hPMAT [4]) was 71.8 µM, the Ki (hOCT1 [5]) was 202 ± 68 µM and the IC50 (hOCT1 [5]) was 96.7 ± 37 µM. For the same compound, the Ki (hOCT2 [6]) was 10.5 ± 2.6 µM, the IC50 (hOCT2 [6]) was 20.3 ± 16.9 µM and the IC50 (hOCT3 [7]; marked (5-HT), read-out: IC50 literature hOCT3 (5-HT)) was 24.1 ± 70 µM. The IC50 (hOCT3 [7]; marked (DA), read-out: IC50 literature hOCT3 (DA)) was 41.5 ± 7.5 µM, the Ki (hOCT3 [7]) was 460 ± 140 µM and the IC50 (hOCT3 [7]; read-out: IC50 literature hOCT3, ref 8) was 363 ± 56.4 µM. The IC50 (hOCT3 [7]; read-out: IC50 literature hOCT3, ref 9) was 42 ± 7 µM.

For `CCCC(C(=O)c1ccccc1)N1CCCC1` (stereo not drawn) [α-PVP], the IC50 (hOCT1 [5]; ref 13) is given as 1.31 µM, the IC50 (hOCT2 [6]; ref 13) is given as 5.62 µM and the IC50 (hOCT2 [6]; ref 14) is given as 17.5 ± 2.5 µM. The IC50 (hOCT3 [7]; ref 13, read-out: IC50 literature hOCT3) was 1630 µM, the IC50 (hOCT3 [7]; ref 14, read-out: IC50 literature hOCT3) was greater than 1000 µM and the IC50 (hPMAT [8]; ref 13) was 13.4 µM.
